Key:
[1] = in the clinic, cited from earlier work
Source text: The sixth diabetic animal, 161281, was not treated because it was already receiving insulin.

diabetic rhesus monkeys [2] = assay: Glucose lowering by liraglutide detected by continuous glucose monitoring (CGM); assay type: in vivo; conditions: for Mean glucose, With liraglutide: CGM over treatment period (16 to 28 days)
Experimental: Vehicle used was 1 mM Sodium Phosphate (pH = 8) and 5% Mannitol. […] Blood samples were obtained at 0.08, 0.25, 0.50, 1.00, 2.00, 4.00, 6.00, 7.00, and 24.00 hours post-dose. […] Compound was given daily subcutaneously at 15 µg/kg in the morning each day (~8–9 am). Lira dosing started on Day 39 of the CGM period and continued for 28 days.
Surgery procedure: Rhesus monkeys underwent surgery for placement of the DSI HD-XG glucose sensor into the right carotid artery. Animals were initially sedated with 10 mg/kg ketamine IM, intubated and anesthesia was maintained through isoflurane inhalation. All monkeys received 0.01 mg/kg Buprenorphine IM, 4.4 mg/kg carprofen SC and 20 mg/kg ceftiofur SC preoperatively. A 3–4 centimeter skin incision was made on the right, mid-lateral neck over the carotid artery where the pulse was palpated. A 1–2 centimeter segment of the right carotid artery was isolated and a tight ligature was placed distally towards the head around the exposed section of vessel. A second ligature was pre-placed, but not tightened, proximally towards the chest around the exposed section of vessel to prevent excessive bleeding when the vessel was cut. A small incision was made in the artery between these two ligatures. The sensor was inserted into the lumen of the vessel and advanced towards the heart approximately 8–9 centimeters. The pre-placed ligature was tightened to prevent bleeding around the sensor. A third ligature was secured around the sensor between the previously placed ligatures and further secured around the vessel to prevent the sensor from migrating. The telemetry body was secured to the underlying musculature in the right lateral neck near the sensor entry into the artery. Monkeys received 2 mg/kg bupivacaine locally at the skin incision. All incisions were then closed routinely. The animals were removed from the isoflurane anesthesia to allow for recovery and were monitored until they were sternal and stable. Animals received 4.4 mg/kg carprofen PO or IM once the day following surgery and were observed daily for the next 10 days to assure a normal recovery. A reference electrode and telemetry body was placed in the subcutaneous tissue near the catheter entry point as recommended by DSI.
The implanted sensor transmits its signal to a repeater located on the same animal on the collar. That repeater then immediately retransmits the HD-XG data on a different frequency to a repeater receiver up to 8 meters away. […] Glucose sensor values were reported once per second.

diabetic rhesus monkeys [3] = assay: Multiscale entropy (MSE) analysis of glucose dynamics before and during liraglutide treatment; assay type: in vivo; conditions: 15 µg/kg sc daily
Experimental: Details about the definition and calculation of MSE are given in the Supplementary Materials and Methods. MSE-AUC10s-30m is the area under an MSE curve between scale factors of 10 seconds and 30 minutes, and was used as a single-number summary of the curve.
Five diabetic animals were treated with liraglutide for four weeks, beginning during the sixth week of monitoring. […] For each animal the period of the same length immediately preceding the start of liraglutide was used as the comparator (‘pre-liraglutide’) period.
Supplementary Materials and Methods
Multiscale entropy analysis, introduced by Costa et al1, is built upon a quantity called sample entropy2, which we describe first. The sample entropy of a regularly spaced time series of length N is defined using two parameters: a subsequence length, m, and a similarity threshold, r. Consider any two subsequences of length m of the time series. […]
start at the same position.) The subsequences are said to match if the i-th element of one subsequence differs from the i-th element of the other by no more than r, for all ݅=1,…,݉. Let B denote the number of matching pairs of subsequences when we consider all possible pairs of length- m subsequences from the first […] observations of the series. Next, repeat the process of counting matches, but use subsequences of length m+1instead of m, and consider all possible such subsequences taken from the full series of N observations. Let A denote the number of matching pairs among them.
Then the sample entropy is the negative natural logarithm of the ratio A/B. See Richman and Moorman 2 for details and explicit formulas. […]
Multiscale entropy calculates this sample entropy after applying various amounts of averaging to the original time series. […] The result is a new time series of averages, for which sample entropy is calculated. […]
Application of MSE analysis requires choosing values for the parameters m and r, and the set of scale factors to use. […] The smallest possible scale fact or is set by the time resolution of the series being analyzed, in our case 1 second. […]

CCCCCCCCCCCCCCCC(=O)N[C@@H](CCC(=O)NCCCC[C@H](NC(=O)[C@H](C)NC(=O)[C@H](C)NC(=O)[C@H](CCC(N)=O)NC(=O)CNC(=O)[C@H](CCC(=O)O)NC(=O)[C@H](CC(C)C)NC(=O)[C@H](Cc1ccc(O)cc1)NC(=O)[C@H](CO)NC(=O)[C@H](CO)NC(=O)[C@@H](NC(=O)[C@H](CC(=O)O)NC(=O)[C@H](CO)NC(=O)[C@@H](NC(=O)[C@H](Cc1ccccc1)NC(=O)[C@@H](NC(=O)CNC(=O)[C@H](CCC(=O)O)NC(=O)[C@H](C)NC(=O)[C@@H](N)Cc1cnc[nH]1)[C@@H](C)O)[C@@H](C)O)C(C)C)C(=O)N[C@@H](CCC(=O)O)C(=O)N[C@@H](Cc1ccccc1)C(=O)N[C@H](C(=O)N[C@@H](C)C(=O)N[C@@H](Cc1c[nH]c2ccccc12)C(=O)N[C@@H](CC(C)C)C(=O)N[C@H](C(=O)N[C@@H](CCCNC(=N)N)C(=O)NCC(=O)N[C@@H](CCCNC(=N)N)C(=O)NCC(=O)O)C(C)C)[C@@H](C)CC)C(=O)O [liraglutide]
time of maximum concentrations post dosing ([1]; subcutaneous administration): 8 to 12 h | mean peak (Cmax) exposure ([1]; subcutaneous single dose of 0.6 mg): 35 ng/mL | afternoon peak in glucose (diabetic rhesus monkeys [2]; all five treated diabetic rhesus, mean glucose by time of day, before and during treatment): reduced | Mean glucose, With liraglutide (diabetic rhesus monkeys [2]; diabetic rhesus animal 161282, 15 µg/kg sc daily): 208.2 mg/dL | Mean glucose, With liraglutide (diabetic rhesus monkeys [2]; diabetic rhesus animal 161283, 15 µg/kg sc daily): 109.6 mg/dL | Mean glucose, With liraglutide (diabetic rhesus monkeys [2]; diabetic rhesus animal 161284, 15 µg/kg sc daily): 183.1 mg/dL | Mean glucose, With liraglutide (diabetic rhesus monkeys [2]; diabetic rhesus animal 161286, 15 µg/kg sc daily): 236.6 mg/dL | Mean glucose, With liraglutide (diabetic rhesus monkeys [2]; diabetic rhesus animal 161288, 15 µg/kg sc daily): 140.9 mg/dL | coefficient of variation of glucose (standard deviation as a proportion of the mean), treatment vs pre-treatment (diabetic rhesus monkeys [2]; five diabetic rhesus, 15 µg/kg sc daily): no consistent change | decline of mean glucose (diabetic rhesus monkeys [2]; range over all five treated diabetic rhesus, 15 µg/kg sc daily, treatment vs pre-treatment period): 5–42% | MSE curve of glucose, treatment vs pre-treatment period (diabetic rhesus monkeys [3]; animals 161286 and 161288): higher | complexity of glucose dynamics in diabetic animals (diabetic rhesus monkeys [3]; five diabetic rhesus, 2–4 weeks of treatment): did not consistently change complexity | MSE of glucose, treatment vs pre-treatment period (diabetic rhesus monkeys [3]; three of five treated diabetic animals, 16 to 28 days): essentially no difference
